Laboratory results from US12428403B2, “N-(heterocyclyl and heterocyclylalkyl)-3-benzylpyridin-2-amine derivatives as SSTR4 agonists” (Takeda Pharmaceutical Company Limited, priority 2020, dated 2025).

Columns and labels:
SSTR4 [1] = molecular target: T1, SSTR4 (Homo sapiens, UniProt P31391); assay: cell-based
Description: This cell-based assay measures the ability of compounds to inhibit forskolin stimulated cAMP in CHO-K1 cells overexpressing SSTR4. CHO-K1 cells overexpressing SSTR4 (CHO-SSTR4) are purchased from DiscoveRx (product code 95-0059C2). The CHO-SSTR4 cells are maintained in F12K media with 10% Fetal Bovine Serum (Hyclone), 1% Pen/Strep (Life Technologies), and 800 μg/mL G418 (Life Technologies). To perform the assay, 3000 cells are plated per well in white 384-well plate (Corning 3570) in 50 complete media and the cells are allowed to attach for 16 hours in a 37° C., 5% CO2 incubator. The next day, the culture media is removed from the cells and the cells are washed (added then removed) with Krebs Ringer Buffer (ZenBio, KRB-1000 mL). Test compounds are suspended in DMSO and diluted in stimulation buffer: Krebs Ringer Buffer plus 0.5% BSA (Roche), 300 μM IBMX (Sigma), and 350 nM forskolin (Sigma). The cells are incubated in 10 μL compound/stimulation buffer for 30 minutes at room temperature. Cellular cAMP levels are detected with a HTRF LANCE Ultra cAMP kit (Perkin Elmer, catalog number TRF0264).
The assay is performed in accordance with the manufacturer's instructions. Five μL of diluted Eu-W8044 labeled streptavidin (dilution: 1:50 in cAMP Detection Buffer) is added to each well. Then 5 μL of diluted biotin cAMP (dilution: 1:150 in cAMP Detection Buffer) is added to each well. The plates are covered and allowed to incubate for 60 minutes at room temperature on a shaker. HTRF (665 nm/615 nm) is read on a Perkin Elmer ENVISION plate reader. The pEC50 values are generated using Activity Base for Screening Data Management.

SSTR1 = SSTR1 (Homo sapiens, UniProt P30872); assay: biochemical;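 also: competitive binding to membranes of CHO-K1 cells overexpressing SSTR1, incubated 60 min at room temperature, radioactivity read by scintillation counting after filtration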
SSTR1, sequence (P30872 whole entry): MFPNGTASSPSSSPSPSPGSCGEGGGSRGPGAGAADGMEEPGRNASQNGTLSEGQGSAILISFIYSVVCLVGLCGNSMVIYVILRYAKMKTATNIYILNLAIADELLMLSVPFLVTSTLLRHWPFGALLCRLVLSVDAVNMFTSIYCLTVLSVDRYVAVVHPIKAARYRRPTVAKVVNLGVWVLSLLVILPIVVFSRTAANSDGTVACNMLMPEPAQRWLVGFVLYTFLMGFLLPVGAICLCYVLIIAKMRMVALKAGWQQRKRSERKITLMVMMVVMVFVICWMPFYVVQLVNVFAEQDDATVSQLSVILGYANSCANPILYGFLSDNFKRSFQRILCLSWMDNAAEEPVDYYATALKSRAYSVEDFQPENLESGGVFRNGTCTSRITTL
Description: SSTR1 I-125 Somatostatin Competition Binding Assay for Selectivity Versus SSTR1
Membranes from CHO-K1 cells overexpressing SSTR1 are purchased from Perkin Elmer (catalog number ES-520-M400UA). Test compounds are suspended in DMSO and then diluted in assay buffer (25 mM HEPES pH 7.4, 10 mM MgCl2, 1 mM CaCl2, 0.5% BSA) plus 0.4 nM I-125 labeled somatostatin (Perkin Elmer catalog number NEX389). […] Then 10 μg of SSTR1 membranes in 50 μL assay buffer are added per well. The plate is incubated for 60 minutes at room temperature. […] The contents of the assay plate are transferred to filters with a TomTech harvester and washed 5 times with 20 mM HEPES, 100 mM NaCl. […] The scintillator sheets are melted to the filters using a heat block. The filters are then read in a MicroBeta scintillation counter. Binding Ki curves are generated using Activity Base for Screening Data Management and the results are reported as pIC50.

SSTR4 [2] = molecular target: T1, SSTR4; assay: SSTR4 I-125 somatostatin competition binding assay (CHO-K1 membranes); design: host or cells: CHO-K1; conditions: competition with I-125 labeled somatostatin, membranes from CHO-K1 overexpressing SSTR4; read-out: SSTR4 Binding pIC50 (converted)
Description: SSTR4I-125 Somatostatin Competition Binding Assay
Membranes from CHO-K1 cells overexpressing SSTR4 are purchased from Perkin Elmer (catalog number ES-524-M400UA). […] The scintillator sheets are melted to filters using a heat block.
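For EC50 in this document: CHO-K1 cells overexpressing SSTR4, reduction of forskolin-driven cAMP after 30 min compound exposure at room temperature, cAMP read by HTRF LANCE Ultra kit.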

T1 sequence (P31391 whole entry): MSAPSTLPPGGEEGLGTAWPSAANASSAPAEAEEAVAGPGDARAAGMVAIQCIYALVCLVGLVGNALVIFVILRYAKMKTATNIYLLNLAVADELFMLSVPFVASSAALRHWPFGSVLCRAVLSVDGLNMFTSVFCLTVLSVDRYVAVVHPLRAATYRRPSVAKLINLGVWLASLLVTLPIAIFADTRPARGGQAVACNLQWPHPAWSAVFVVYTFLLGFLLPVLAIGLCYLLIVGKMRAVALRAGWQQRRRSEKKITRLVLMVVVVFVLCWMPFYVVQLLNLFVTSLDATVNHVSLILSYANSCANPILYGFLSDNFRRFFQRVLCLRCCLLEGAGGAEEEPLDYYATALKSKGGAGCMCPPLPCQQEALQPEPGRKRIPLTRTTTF

`Cc1nnc([C@H](C)c2ccc(F)cc2)c(N[C@@H]2CCN(C)C2)n1` (single isomer, unassigned) [Example 141] showed an EC50 (SSTR4 [1]) of 21.4 nM, an IC50 (SSTR1) of 25700 nM and an IC50 (SSTR4 [2]) of 93.3 nM.

In the case of `Cc1nnc([C@H](C)c2ccccc2)c(NCCN2CCC2)n1` (single isomer, unassigned) [Example 144], the EC50 (SSTR4 [1]) is reported as 38 nM, the IC50 (SSTR1) is reported as 18600 nM and the IC50 (SSTR4 [2]) is reported as 603 nM.

Work on `Cc1nnc([C@@H](C)c2ccccc2)c(NCCN2CCC2)n1` (single isomer, unassigned) [Example 145] yielded an EC50 (SSTR4 [1]) of 1.74 nM, an IC50 (SSTR1) of 14500 nM and an IC50 (SSTR4 [2]) of 25.1 nM.

Compound `Cc1nnc([C@H](C)c2ccc(F)cc2)c(N[C@H]2CCN(C)C2)n1` (single isomer, unassigned) [Example 146] has an EC50 (SSTR4 [1]) of 27.5 nM, an IC50 (SSTR1) of 10000 nM and an IC50 (SSTR4 [2]) of 91.2 nM.

In the case of `Cc1nnc([C@H](C)c2ccccc2)c(N[C@@H]2CCN(C)C2)n1` (single isomer, unassigned) [Example 149], the EC50 (SSTR4 [1]) is reported as 39.8 nM, the IC50 (SSTR1) is reported as 12900 nM and the IC50 (SSTR4 [2]) is reported as 174 nM.

With `Cc1nnc([C@@H](C)c2ccccc2)c(N[C@H]2CCN(C)C2)n1` (single isomer, unassigned) [Example 152] the EC50 (SSTR4 [1]) was 26.9 nM, the IC50 (SSTR1) was 10000 nM and the IC50 (SSTR4 [2]) was 204 nM.

`C[C@H](c1ccc(F)cc1)c1nc(C(=O)N2CCCC2)cnc1NCCN1CCCC1` [Example 8, (R)-(6-(1-(4-fluorophenyl)ethyl)-5-((2-(pyrrolidin-1-yl)ethyl)amino)pyrazin-2-yl)(pyrrolidin-1-yl)methanone] showed an EC50 (SSTR4 [1]) of 31.6 nM, an IC50 (SSTR1) of 1950 nM and an IC50 (SSTR4 [2]) of 141 nM.

Compound `CO[C@H]1CCN(C(=O)c2cnc(NCCN3CCCC3)c([C@H](C)c3ccc(F)cc3)n2)C1` [Example 10, (6-((R)-1-(4-fluorophenyl)ethyl)-5-((2-(pyrrolidin-1-yl)ethyl)amino)pyrazin-2-yl)((S)-3-methoxypyrrolidin-1-yl)methanone] has an EC50 (SSTR4 [1]) of 26.9 nM, an IC50 (SSTR1) of 3160 nM and an IC50 (SSTR4 [2]) of 380 nM.

Work on `CO[C@@H]1CCN(C(=O)c2cnc(NCCN3CCCC3)c([C@H](C)c3ccc(F)cc3)n2)C1` [Example 11, (6-((R)-1-(4-fluorophenyl)ethyl)-5-((2-(pyrrolidin-1-yl)ethyl)amino)pyrazin-2-yl)((R)-3-methoxypyrrolidin-1-yl)methanone] yielded an EC50 (SSTR4 [1]) of 28.8 nM, an IC50 (SSTR1) of 3470 nM and an IC50 (SSTR4 [2]) of 214 nM.

In the case of `C[C@H](c1ccc(F)cc1)c1nc(C(=O)N[C@H]2CCOC2)cnc1NCCN1CCCC1` [Example 12, 6-((R)-1-(4-fluorophenyl)ethyl)-5-((2-(pyrrolidin-1-yl)ethyl)amino)-N-((S)-tetrahydrofuran-3-yl)pyrazine-2-carboxamide], the EC50 (SSTR4 [1]) is reported as 15.1 nM, the IC50 (SSTR1) is reported as 5620 nM and the IC50 (SSTR4 [2]) is reported as 162 nM.

`C[C@H](c1ccc(F)cc1)c1nc(C(=O)N[C@@H]2CCOC2)cnc1NCCN1CCCC1` [Example 13, 6-((R)-1-(4-fluorophenyl)ethyl)-5-((2-(pyrrolidin-1-yl)ethyl)amino)-N-((R)-tetrahydrofuran-3-yl)pyrazine-2-carboxamide] gave an EC50 (SSTR4 [1]) of 11.7 nM, an IC50 (SSTR1) of 4070 nM and an IC50 (SSTR4 [2]) of 162 nM.

`C[C@H](c1ccc(F)cc1)c1nc(C(=O)N(C)C2CC2)cnc1NCCN1CCCC1` [Example 17, (R)-N-cyclopropyl-6-(1-(4-fluorophenyl)ethyl)-N-methyl-5-((2-(pyrrolidin-1-yl)ethyl)amino)pyrazine-2-carboxamide] was tested, and the EC50 (SSTR4 [1]) was 11.7 nM, the IC50 (SSTR1) was 7940 nM and the IC50 (SSTR4 [2]) was 162 nM.

Work on `C[C@H](c1ccc(F)cc1)c1nc(C(=O)NC2CCOCC2)cnc1NCCN1CCCC1` [Example 18, (R)-6-(1-(4-fluorophenyl)ethyl)-5-((2-(pyrrolidin-1-yl)ethyl)amino)-N-(tetrahydro-2H-pyran-4-yl)pyrazine-2-carboxamide] yielded an EC50 (SSTR4 [1]) of 12 nM, an IC50 (SSTR1) of 8910 nM and an IC50 (SSTR4 [2]) of 166 nM.

In the case of `CC(c1ccc(F)cc1)c1nc(C(N)=O)cnc1NCCN1CCCC1` (stereo not drawn) [Example 19, 6-(1-(4-fluorophenyl)ethyl)-5-((2-(pyrrolidin-1-yl)ethyl)amino)pyrazine-2-carboxamide], the EC50 (SSTR4 [1]) is reported as 5.37 nM, the IC50 (SSTR1) is reported as 5750 nM and the IC50 (SSTR4 [2]) is reported as 50.1 nM.

Compound `CNC(=O)c1cnc(NCCN2CCCC2)c(C(C)c2ccc(F)cc2)n1` (stereo not drawn) [Example 22, 6-(1-(4-fluorophenyl)ethyl)-N-methyl-5-((2-(pyrrolidin-1-yl)ethyl)amino)pyrazine-2-carboxamide] has an EC50 (SSTR4 [1]) of 3.72 nM, an IC50 (SSTR1) of 10500 nM and an IC50 (SSTR4 [2]) of 77.6 nM.

`CC(c1ccc(F)cc1)c1ncc(C(=O)N(C)C)nc1NCCN1CCCC1` (stereo not drawn) [Example 28] was tested, and the EC50 (SSTR4 [1]) was 4.68 nM, the IC50 (SSTR1) was 1660 nM and the IC50 (SSTR4 [2]) was 389 nM.

`CC(c1ccc(F)cc1)c1ncc(C(N)=O)nc1NCCN1CCCC1` (stereo not drawn) [Example 37, 5-(1-(4-fluorophenyl)ethyl)-6-((2-(pyrrolidin-1-yl)ethyl)amino)pyrazine-2-carboxamide] gave an EC50 (SSTR4 [1]) of 61.7 nM, an IC50 (SSTR1) of 4570 nM and an IC50 (SSTR4 [2]) of 490 nM.

For `Cc1cccc(Cc2nc(C(=O)N(C)C)c(C)nc2NCCN2CCCC2)c1` [Example 39, N,N,3-trimethyl-6-(3-methylbenzyl)-5-((2-(pyrrolidin-1-yl)ethyl)amino)pyrazine-2-carboxamide], the EC50 (SSTR4 [1]) was 4.27 nM, the IC50 (SSTR1) was 26900 nM and the IC50 (SSTR4 [2]) was 41.7 nM.

`CNC(=O)c1nc(Cc2cccc(C)c2)c(NCCN2CCCC2)nc1C` [Example 40, N,3-dimethyl-6-(3-methylbenzyl)-5-((2-(pyrrolidin-1-yl)ethyl)amino)pyrazine-2-carboxamide] gave an EC50 (SSTR4 [1]) of 1.17 nM, an IC50 (SSTR1) of 8910 nM and an IC50 (SSTR4 [2]) of 21.9 nM.

`Cc1cccc(Cc2nc(C(N)=O)c(C)nc2NCCN2CCCC2)c1` [Example 41, 3-methyl-6-(3-methylbenzyl)-5-((2-(pyrrolidin-1-yl)ethyl)amino)pyrazine-2-carboxamide] showed an EC50 (SSTR4 [1]) of 2.09 nM, an IC50 (SSTR1) of 13200 nM and an IC50 (SSTR4 [2]) of 23.4 nM.

In the case of `Cc1nc(NCCN2CCCC2)c(Cc2ccc(F)cc2)nc1C(=O)N(C)C` [Example 42, 6-(4-fluorobenzyl)-N,N,3-trimethyl-5-((2-(pyrrolidin-1-yl)ethyl)amino)pyrazine-2-carboxamide], the EC50 (SSTR4 [1]) is reported as 12.6 nM, the IC50 (SSTR1) is reported as 10000 nM and the IC50 (SSTR4 [2]) is reported as 138 nM.

`CNC(=O)c1nc(Cc2ccc(F)cc2)c(NCCN2CCCC2)nc1C` [Example 43, 6-(4-fluorobenzyl)-N,3-dimethyl-5-((2-(pyrrolidin-1-yl)ethyl)amino)pyrazine-2-carboxamide] showed an EC50 (SSTR4 [1]) of 12.6 nM, an IC50 (SSTR1) of 9770 nM and an IC50 (SSTR4 [2]) of 39.8 nM.

`CNC(=O)c1nc(Cc2ccc(F)cc2)c(NCCN2CCCC2)nc1C` [Example 44, 6-(4-fluorobenzyl)-N,3-dimethyl-5-((2-(pyrrolidin-1-yl)ethyl)amino)pyrazine-2-carboxamide] gave an EC50 (SSTR4 [1]) of 4.79 nM, an IC50 (SSTR1) of 11700 nM and an IC50 (SSTR4 [2]) of 67.6 nM.

With `Cc1nc(NCCN2CCCC2)c(C(C)c2ccc(F)cc2)nc1C(=O)N(C)C` (stereo not drawn) [Example 48, 6-(1-(4-fluorophenyl)ethyl)-N,N,3-trimethyl-5-((2-(pyrrolidin-1-yl)ethyl)amino)pyrazine-2-carboxamide] the EC50 (SSTR4 [1]) was 0.776 nM, the IC50 (SSTR1) was 9550 nM and the IC50 (SSTR4 [2]) was 11.7 nM.

`CNC(=O)c1nc(C(C)c2ccc(F)cc2)c(NCCN2CCCC2)nc1C` (stereo not drawn) [Example 49, 6-(1-(4-fluorophenyl)ethyl)-N,3-dimethyl-5-((2-(pyrrolidin-1-yl)ethyl)amino)pyrazine-2-carboxamide] gave an EC50 (SSTR4 [1]) of 0.977 nM, an IC50 (SSTR1) of 2570 nM and an IC50 (SSTR4 [2]) of 16.6 nM.
